Test results: patent publication US10765625B2, “Knottin-drug conjugates and methods of using the same” (THE BOARD OF TRUSTEES OF THE LELAND STANFORD JUNIOR …, priority 2016, dated 2020)
Read-outs that look alike come from different tables or passages of the source.

Assays:
U87MG cells [1] = assay: Competition binding assay with AF488-labeled EETI-2.5F (AF488-1), flow cytometry; settings: competition with 1 nM AF488-1, 4° C., 3 hours, read-out: IC50 (nM), binding affinity
Description: Once the knottin-drug conjugates 5a-d were prepared, their binding affinity to U87MG glioblastoma cells, which are known to have elevated expression of tumor-associated integrins, was tested. […] To measure the relative binding affinities of knottins 1 and 2 and KDCs 5a-d, competition binding assays were performed using AlexaFluor 488-conjugated EETI-2.5F (AF488-1) as previously described (J. W. Kim, et al., J. Am. Chem. Soc. 2015, 137, 6-9). Cells (5×10^4 per sample) were detached with 0.05% Trypsin-EDTA, washed with IBB (25 mM Tris pH 7.4, 150 mM NaCl, 2 mM CaCl2, 1 mM MgCl2, 1 mM MnCl2, and 0.1% bovine serum albumin), and incubated with 1 nM AF488-1 and varying concentrations of competitors in 800 μL of IBB at 4° C. for 3 hours. The cells were washed twice with 800 μL of PBSA (phosphate buffered saline containing 0.1% bovine serum albumin) and the fluorescence of the surface-bound AF488-1 was determined using flow cytometry. The fluorescence was normalized to that of cells treated with AF488-1 alone to obtain the fraction bound. Half-maximal inhibitory concentration (IC50) values were determined by nonlinear regression analysis. Error bars represent the standard deviation of experiments performed in triplicate.

U87MG cells [2] = assay: Cell proliferation, CCK-8 colorimetric assay; assay type: cell-based
Description: (§1) U87MG, and PANC-1 cells were grown in Dulbecco's Modified Eagle Medium (DMEM) with 10% fetal bovine serum (FBS) and 1% penicillin/streptomycin. MDA-MB-468 cells were grown in DMEM and Ham's F-12 medium (DMEM/F12) with 10% FBS and 1% penicillin/streptomycin. A2780 and BxPC3 cells were grown in Roswell Park Memorial Institute medium (RPMI) 1640+L-glutamine, with 10% FBS and 1% penicillin/streptomycin. D270 cells were grown in MEM (Richter's modification, no phenol red) with 10% FBS and 0.1% Gentamicin. Unless otherwise specified, cells were incubated at 37° C., 5% CO2. Flow cytometry was performed using an EMD Millpore Guava EasyCyte 8HT flow cytometer and the resulting data were evaluated using FlowJo software provided by TreeStar, Inc. Cell proliferation was measured using the Dojindo Cell Counting Kit-8 by replacing the media in each well with 100 μL of media containing 10% WST-8. After incubation for 1 h at 37° C., absorbance, A, at 450 nm was measured with a BioTek Synergy H4 microtiter plate reader. The background signal of CCK-8 alone was subtracted from all samples. Cell proliferation was then expressed as a percentage of absorbance relative to the control of untreated cells (Equation 2). Nonlinear regression analysis was performed using GraphPad Prism.
Next, the potency of each KDC was tested in a cell-proliferation experiment. […] Cells were seeded in a 96-well plate at a density of 2,500 cells per well and grown overnight at 37° C., 5% CO2 in DMEM with 10% FBS and 1% penicillin/streptomycin. Cells were subsequently treated with 100 μL of fresh media, containing varying concentrations of drug, protein, or protein-drug conjugate and incubated for 4 d at 37° C., 5% CO2. Cell proliferation was measured according to the method described in Section 1.3. Error bars represent the standard deviation of experiments performed in triplicate. […] Given that the linker must be cleaved to release free Gemcitabine in order for the payload to become active, the low potency of 5b can be explained by the greater stability of the carbamate group as compared to the other linkers tested.

U87MG cells [3] = assay: Integrin-blocking competition: cell proliferation (CCK-8) after pre-treatment with EETI-2.5F (1); assay type: cell-based; settings: 1 μM 1, 3 h pre-treatment and co-treatment
Description: as §1
One possible explanation for the apparent hENT1-independence of 5d is that its route of internalization could be integrin-mediated. The role of integrin-binding in the biological potency and hENT1-independence of 5d was determined. A competition experiment was carried out in which U87MG cells were pre-treated with unconjugated EETI-2.5F (1) in order to block integrins on the cell surface. The role of integrin-binding was studied by measuring the proliferation of U87MG cells that had been pre-treated with EETI-2.5F (1) when exposed to increasing doses of 3 and KDCs 5a, 5c, and 5d. […] Media used to prepare varying concentrations of drug, protein, or protein-drug conjugate also contained 1 μM of 1. Prior to treatment, cells were incubated for 3 h at 37° C., 5% CO2 with fresh media containing 1 μM 1. After this pre-treatment, cells were incubated with varying concentrations of 5a, 5c, or 5d for 24 h and then media was replaced with fresh media and cells were incubated for an additional 48 h. Cell proliferation was measured using the Cell Counting Kit-8 by replacing the media in each well with 100 μL of media containing 10% WST-8. After incubation for 1 h at 37° C., absorbance at 450 nm was measured with a Synergy H4 microtiter plate reader. Cell proliferation was measured according to the method described in Section 1.3. Error bars represent the standard deviation of experiments performed in triplicate.

CC(C)C[C@@H]1NC(=O)[C@@H]2CSSC[C@@H](C(=O)NCC(=O)O)NC(=O)[C@H](Cc3ccccc3)NC(=O)CNC(=O)[C@H](CC(N)=O)NC(=O)[C@@H]3CCCN3C(=O)CNC(=O)[C@@H]3CSSC[C@H](NC(=O)[C@H]([C@@H](C)O)NC(=O)[C@H](CC(C)C)NC(=O)[C@@H]4CCCN4C(=O)[C@@H]4CCCN4C(=O)[C@H](CC(N)=O)NC(=O)[C@H](CC(=O)O)NC(=O)CNC(=O)[C@H](CCCNC(=N)N)NC(=O)[C@@H]4CCCN4C(=O)[C@H](CCCNC(=N)N)NC(=O)[C@@H]4CCCN4C(=O)[C@@H](NC(=O)CN)CSSC[C@H](NC(=O)CNC(=O)[C@H](C)NC1=O)C(=O)N[C@@H](C(C)C)C(=O)N3)C(=O)N[C@@H](CCCn1cc(CCC(=O)N[C@H](C(=O)N[C@@H](C)C(=O)Nc3ccc(COC(=O)Nc4ccn([C@@H]5O[C@H](CO)[C@@H](O)C5(F)F)c(=O)n4)cc3)C(C)C)nn1)C(=O)N[C@@H](CCC(N)=O)C(=O)N[C@@H](CC(=O)O)C(=O)N[C@@H](CO)C(=O)N[C@@H](CC(=O)O)C(=O)N2 [5d]
IC50 (U87MG cells [1]): 1.5 ± 0.2 nM | Potency / growth inhibition in U87MG cells (in words) (U87MG cells [2]; U87MG cells, 4 d): low-nanomolar ED50 values | EC50 (U87MG cells [2]; U87MG cells, 4 d incubation, vs untreated control, read-out: ED50 (nM), potency): 9 ± 1.8 nM | EC50 (U87MG cells [2]; U87MG glioblastoma, 4 d after treatment, read-out: ED50 (nM), cell growth inhibition): 9 ± 1.8 nM | Effect of integrin blocking by pre-treatment with 1 on potency (in words) (U87MG cells [3]): abolishes the potency
